Our source for the EC50 values is patent US9102614B2, “Naphth-2-ylacetic acid derivatives to treat AIDS” (Gilead Sciences, Inc., priority 2010, dated 2015).

The structures appear in SMILES notation.

For the first assay, the system named is HIV-IIIb. As to the kind of experiment: Test A: Antiviral Assays in MT4 Cells. Type of assay: cell-based. The following applies: Human immunodeficiency virus 1, IIIB, MT4, 120 h. Here is the method:
Test A: Antiviral Assays in MT4 Cells
For the antiviral assay utilizing MT-4 cells, 0.4 μL of […] test concentration of 3-fold serially diluted compound in DMSO was added to 40 μL of cell growth medium (RPMI 1640, 10% FBS, 1% penicillin/Streptomycin, 1% L-Glutamine, 1% HEPES) in each well of 384-well assay plates (10 concentrations) in quadruplicate.
1 mL aliquots of 2×10e6 MT-4 cells are pre-infected for 1 and 3 hrs respectively, @37° C. with 25 μL (MT4) or of either cell growth medium (mock-infected) or a fresh 1:250 dilution of an HIV-IIIb concentrated ABI stock (0.004 m.o.i. for MT4 cells). Infected and uninfected cells are diluted in cell growth medium and 35 uL of 2000 (for MT4) cells is added to each well of the assay plates.
Assay plates were then incubated in a 37° C. incubator. After 5 days of incubation, 25 μl of 2× concentrated CellTiter-Glo™ Reagent (catalog #G7573, Promega Biosciences, Inc., Madison, Wis.) was added to each well of the assay plate. Cell lysis was carried out by incubating at room temperature for 2-3 min and then chemiluminescence was read using the Envision reader (PerkinElmer).
One may read the EC50 as the midpoint of the concentration-response curve. As to `Cc1cc2ccccc2c(-c2cccc(N3CCC3)c2)c1[C@H](OC(C)(C)C)C(=O)O` [Compound 19, (S)-2-(1-(3-(Azetidin-1-yl)phenyl)-3-methylnaphthalen-2-yl)-2-tert-butoxyacetic acid], the midpoint of the response, the EC50, lay at 5400 nM.

Staying with this assay, now noted: Human immunodeficiency virus 1, IIIB, MT4, 120 h, MT-4 cells infected with HIV-IIIb (0.004 m.o.i.), 5 days of incubation, CellTiter-Glo chemiluminescence readout; read-out: EC50.
Consider `COc1ccc(Cc2c(OC)ccc3c(-c4ccc(Cl)cc4)c(C(OC(C)(C)C)C(=O)O)c(C)cc23)cc1` (stereo not shown) [Compound 49, 2-tert-Butoxy-2-(1-(4-chlorophenyl)-6-methoxy-5-(4-methoxybenzyl)-3-methylnaphthalen-2-yl)acetic acid], for which the EC50 was found to be 650 nM.
Take `CCc1cc2ccccc2c(-c2ccc(Cl)cc2)c1[C@H](OC(C)(C)C)C(=O)O` [Compound 29B, (S)-2-tert-butoxy-2-(1-(4-chlorophenyl)-3-ethylnaphthalen-2-yl)acetic acid]: the EC50 amounted to 500 nM.
As to `Cc1c(C(OC(C)(C)C)C(=O)O)c(-c2ccc(Cl)cc2)c2ccccc2c1C#CCN(C)C` (stereo not shown) [Compound 131, 2-tert-Butoxy-2-(1-(4-chlorophenyl)-4-(3-(dimethylamino)prop-1-ynyl)-3-methylnaphthalen-2-yl)acetic acid], the EC50 amounted to 62 nM.
As for `Cc1cc2c(C#N)c(C)ccc2c(-c2ccc3c4c(ccnc24)CCO3)c1[C@H](OC(C)(C)C)C(=O)O` (atropisomer, axis not shown) [Compound 118, (S)-2-tert-Butoxy-2-((R)-5-cyano-1-(2,3-dihydropyrano[4,3,2-de]quinolin-7-yl)-3,6-dimethylnaphthalen-2-yl)acetic acid], the EC50 stood at 36 nM.
The same measure, in the same setting: under `Cc1c(C(OC(C)(C)C)C(=O)O)c(-c2ccc(Cl)cc2)c2ccccc2c1CO` (stereo not shown) [Compound 135, 2-tert-Butoxy-2-(1-(4-chlorophenyl)-4-(hydroxymethyl)-3-methylnaphthalen-2-yl)acetic acid] stands 45 nM.
Still for that read-out and setting: under `CC(C)(C)O[C@H](C(=O)O)c1c(C(F)F)cc2ccccc2c1-c1ccc2c3c(ccnc13)CCO2` [Compound 32, (S)-2-tert-Butoxy-2-((R)-3-(difluoromethyl)-1-(2,3-dihydropyrano[4,3,2-de]quinolin-7-yl)naphthalen-2-yl)acetic acid] stands 86 nM; under `Cc1c([C@H](OC(C)(C)C)C(=O)O)c(-c2ccc3c4c(ccnc24)CCO3)c2ccccc2c1F` (atropisomer, axis not shown) [Compound 178], 34000 nM; under `Cc1c([C@@H](OC(C)(C)C)C(=O)O)c(-c2ccc(Cl)cc2)c2ccccc2c1Br` [Compound 150A, (R)-2-(4-Bromo-1-(4-chlorophenyl)-3-methylnaphthalen-2-yl)-2-tert-butoxyacetic acid], 29200 nM.
On the same count and under the same terms, the figure for `Cc1cc2cc(C(F)F)ccc2c(-c2ccc3c4c(ccnc24)CCO3)c1[C@H](OC(C)(C)C)C(=O)O` [Compound 181, (S)-2-tert-butoxy-2-((R)-6-(difluoromethyl)-1-(2,3-dihydropyrano[4,3,2-de]quinolin-7-yl)-3-methylnaphthalen-2-yl)acetic acid] is 5 nM; for `Cc1c(C(OC(C)(C)C)C(=O)O)c(-c2ccc(Cl)cc2)c2ccccc2c1-c1cccnc1` (stereo not shown) [Compound 138, 2-tert-butoxy-2-(1-(4-chlorophenyl)-3-methyl-4-(pyridin-3-yl)naphthalen-2-yl)acetic acid] it is 40 nM; for `COc1ccc2c(-c3ccc(Cl)cc3)c(C(OC(C)(C)C)C(=O)O)c(C)cc2c1` (stereo not shown) [Compound 48, 2-tert-Butoxy-2-(1-(4-chlorophenyl)-6-methoxy-3-methylnaphthalen-2-yl)acetic acid] it is 210 nM.
On to `Cc1cc2cc(-c3cccnc3)ccc2c(-c2ccc(Cl)cc2)c1[C@H](OC(C)(C)C)C(=O)O` [Compound 54, (S)-2-tert-Butoxy-2-(1-(4-chlorophenyl)-3-methyl-6-(pyridin-3-yl)naphthalen-2-yl)acetic acid], for which the EC50 was found to be 55 nM.
On the same count and under the same terms, the figure for `Cc1cc2ccccc2c(-c2ccc3c4c2NCCC4CCO3)c1[C@H](OC(C)(C)C)C(=O)O` (stereo partly drawn) [Compound 20, (2S)-2-tert-Butoxy-2-(1-((7R)-2,3,3a,4,5,6-hexahydropyrano[4,3,2de]quinolin-7-yl)-3-methylnaphthalen-2-yl)acetic acid] is 93 nM; for `CC(C)=Cc1ccc2cc(C)c(C(OC(C)(C)C)C(=O)O)c(-c3ccc(Cl)cc3)c2c1` (stereo not shown) [Compound 77, 2-tert-butoxy-2-(1-(4-chlorophenyl)-3-methyl-7-(2-methylprop-1-enyl)naphthalen-2-yl)acetic acid] it is 8900 nM; for `Cc1cc2ccc(C#CC(C)(C)N)cc2c(-c2ccc3c4c(ccnc24)CCO3)c1C(OC(C)(C)C)C(=O)O` [Compound 86, (S)-2-((R)-7-(3-Amino-3-methylbut-1-ynyl)-1-(2,3-dihydropyrano[4,3,2-de]quinolin-7-yl)-3-methylnaphthalen-2-yl)-2-tert-butoxyacetic acid] it is 980 nM.
Still for that read-out and setting: under `Cc1cc2ccccc2c(-c2cccc3cccnc23)c1[C@H](OC(C)(C)C)C(=O)O` [Compound 4L, (S)-2-tert-butoxy-2-((S)-3-methyl-1-(quinolin-8-yl)naphthalen-2-yl)acetic acid] stands 22000 nM; under `Cc1cc2ccc(CCC3(O)CCCC3)cc2c(-c2ccc(Cl)cc2)c1C(OC(C)(C)C)C(=O)O` (stereo not shown) [Compound 91, 2-tert-butoxy-2-(1-(4-chlorophenyl)-7-(2-(1-hydroxycyclopentyl)ethyl)-3-methylnaphthalen-2-yl)acetic acid], 250 nM.
For the compound `C=Cc1c(C)c(C(OC(C)(C)C)C(=O)O)c(-c2ccc(Cl)cc2)c2ccccc12` (stereo not shown) [Compound 128, 2-tert-Butoxy-2-(1-(4-chlorophenyl)-3-methyl-4-vinylnaphthalen-2-yl)acetic acid], the EC50 worked out at 5300 nM.
On the same count and under the same terms, under `Cc1cc2cc(F)ccc2c(-c2ccc(Cl)cc2)c1C(OC(C)(C)C)C(=O)O` (stereo not shown) [Compound 42, 2-tert-Butoxy-2-(1-(4-chlorophenyl)-6-fluoro-3-methylnaphthalen-2-yl)acetic acid] stands 110 nM; under `Cc1cc2c(Cl)c(C)ccc2c(-c2ccc3c4c(ccnc24)CCO3)c1[C@H](OC(C)(C)C)C(=O)O` (atropisomer, axis not shown) [Compound 151], 850 nM; under `Cc1cc2cc(-c3cncnc3)ccc2c(-c2ccc(Cl)cc2)c1[C@H](OC(C)(C)C)C(=O)O` [Compound 55, (S)-2-tert-Butoxy-2-(1-(4-chlorophenyl)-3-methyl-6-(pyrimidin-5-yl)naphthalen-2-yl)acetic acid], 54 nM.
Regarding `Cc1cc2c(F)cccc2c(-c2ccc3c4c(ccnc24)CCO3)c1C(OC(C)(C)C)C(=O)O` (stereo not shown) [Compound 44, 2-tert-Butoxy-2-(1-(2,3-dihydropyrano[4,3,2-de]quinolin-7-yl)-5-fluoro-3-methylnaphthalen-2-yl)acetic acid], the EC50 is 120 nM.
Same read-out and setting: under `Cc1cc2ccc(C#CC3(O)CCCCC3)cc2c(-c2ccc(Cl)cc2)c1C(OC(C)(C)C)C(=O)O` (stereo not shown) [Compound 83, 2-tert-Butoxy-2-(1-(4-chlorophenyl)-7-((1-hydroxycyclohexyl)ethynyl)-3-methylnaphthalen-2-yl)acetic acid] stands 78 nM.
As to `Cc1cc2ccc(C#CC3(O)CCCC3)cc2c(-c2ccc(Cl)cc2)c1C(OC(C)(C)C)C(=O)O` (stereo not shown) [Compound 73, 2-tert-butoxy-2-(1-(4-chlorophenyl)-7-((1-hydroxycyclopentyl)ethynyl)-3-methylnaphthalen-2-yl)acetic acid], the EC50 was 130 nM.

The assay is the same for the next values; noted with them: MT-4 cells infected with HIV-IIIb (0.004 m.o.i.), 5 days of incubation, CellTiter-Glo chemiluminescence readout; read-out: EC50.
With `Cc1cc2ccc(Cl)cc2c(-c2ccc3c4c(ccnc24)CCO3)c1C(OC(C)(C)C)C(=O)O` (racemic) [Compound 124, (±)-(S)-2-tert-butoxy-2-((R)-7-chloro-1-(2,3-dihydropyrano[4,3,2-de]quinolin-7-yl)-3-methylnaphthalen-2-yl)acetic acid], the concentration giving a half-maximal response (EC50) is 150 nM.
`Cc1cc2ccccc2c(-c2cc(F)cc3cccnc23)c1[C@H](OC(C)(C)C)C(=O)O` (atropisomer, axis not shown) [Compound 9, (S)-2-tert-Butoxy-2-(1-((R)-6-fluoroquinolin-8-yl)-3-methylnaphthalen-2-yl)acetic acid]: the EC50 was 1300 nM.
Turning to `Cc1cc2ccccc2c(-c2ccc3c4c(ccnc24)CCO3)c1[C@H](OC(C)(C)C)C(=O)O` [Compound 161], the EC50 was 4700 nM.
On to `Cc1cc2c(F)c(Cl)ccc2c(-c2ccc3c4c(ccnc24)CCO3)c1[C@H](OC(C)(C)C)C(=O)O` (atropisomer, axis not shown) [Compound 152], for which the EC50 worked out at 5800 nM.
The same measure, in the same setting: under `Cc1cc2ccccc2c(-c2ccc(F)c3cccnc23)c1[C@H](OC(C)(C)C)C(=O)O` [Compound 160] stands 36000 nM; under `Cc1cc2c(F)c(CN(C)C)ccc2c(-c2ccc3c4c(ccnc24)CCO3)c1[C@H](OC(C)(C)C)C(=O)O` [Compound 186A, (S)-2-tert-butoxy-2-((R)-1-(2,3-dihydropyrano[4,3,2-de]quinolin-7-yl)-6-((dimethylamino)methyl)-5-fluoro-3-methylnaphthalen-2-yl)acetic acid], 1690 nM.
